Series [1] relates to Oryza sativa. In words: Pre-emergence herbicidal effect and crop plant compatibility. The series is classed as in vivo. The note with it: 3 weeks. The method in brief:
(§1)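 Sandy loam, seeds covered with soil, WP/EC sprayed on soil surface; 600–800 L/ha water + 0.2% wetter; greenhouse 3 wk; visual % damage vs untreated.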

For series [2], the system named is Triticum aestivum (spring). The series is described as above. The series is classed as in vivo. The note with it: 3 weeks. An outline of the steps:
as §1

The subject of series [3] is Zea mays. The series is described as above. The series is classed as in vivo. The note with it: 3 weeks. The method in brief:
as §1

Series [4] in a line: logp (HCOOH), physicochemical characterization.
Series [5] concerns Stellaria media. The series is described as follows: Pre-emergence herbicidal effect. The series is classed as in vivo. The note with it: 3 weeks. The method in brief: as §1
Series [6] has as its system Ipomoea purpurea. The series is described as follows: Pre-emergence herbicidal effect. The format is in vivo. The note with it: 1280 g/ha, 3 weeks. An outline of the steps: as §1
In series [7] the test system is Veronica persica. In words: Pre-emergence herbicidal effect. The series is classed as in vivo. The note with it: 3 weeks. An outline of the steps: as §1
In series [8] the test system is Viola tricolor. In words: Pre-emergence herbicidal effect. The format is in vivo. The note with it: 3 weeks. The method in brief: as §1
Series [9] has as its system Amaranthus retroflexus. The series is described as follows: Pre-emergence herbicidal effect. The format is in vivo. The note with it: 3 weeks. The method in brief: as §1
The subject of series [10] is Cyperus esculentus. In words: Pre-emergence herbicidal effect. The format is in vivo. The note with it: 1280 g/ha, 3 weeks. The method in brief:
as §1

Series [11] deals with Oryza sativa. The series is described as follows: Post-emergence herbicidal effect and crop plant compatibility. The format is in vivo. The note with it: visual scoring after about 3 weeks. The method in brief:
(§2)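 Scoring: visual, percent, about 3 weeks post-treatment, untreated plants as 0% reference and dead plants as 100%. Treatment: spray of WP/EC formulation (600 to 800 L/ha water, 0.2% wetting agent) on one-leaf-stage plants grown in sandy loam under greenhouse conditions.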

The test system of series [12] is Triticum aestivum (spring). The series is described as above. The format is in vivo. The note with it: 80 g/ha, visual scoring after about 3 weeks. An outline of the steps: as §2
In series [13] the test system is Zea mays. Described as above. The note with it: visual scoring after about 3 weeks. The format is in vivo. An outline of the steps: as §2
For series [14], the system named is Ipomoea purpurea. The series is described as follows: Post-emergence herbicidal effect. The format is in vivo. The note with it: 320 g/ha (dose by row order of upper half), scoring after about 3 weeks. As for the experimental part: (§3) Seeds of monocotyledonous and dicotyledonous weed and crop plants are laid out in sandy loam in wood-fiber pots, covered with soil and cultivated in a greenhouse under good growth conditions. 2 to 3 weeks after sowing, the test plants are treated at the one-leaf stage. The compounds of the invention, formulated in the form of wettable powders (WP) or as emulsion concentrates (EC), are then sprayed onto the green parts of the plants as aqueous suspension or emulsion at a water application rate equating to 600 to 800 L/ha with addition of 0.2% wetting agent. After the trial plants have been left to stand in a greenhouse under optimal growth conditions for about 3 weeks, the efficacy of the formulations is scored visually in comparison to untreated controls (herbicidal action in percent (%): 100% efficacy=the plants have died, 0% efficacy=like control plants).

For series [15], the system named is Setaria viridis. In words: Post-emergence herbicidal effect. The note with it: 320 g/ha (dose by row order of upper half), scoring after about 3 weeks. The format is in vivo. As for the experimental part: as §3
The test system of series [16] is Lolium multiflorum. The series is described as follows: Post-emergence herbicidal effect. The format is in vivo. The note with it: 320 g/ha, visual scoring after about 3 weeks. The procedure: as §3
The subject of series [17] is Echinochloa crus-galli. In words: Post-emergence herbicidal effect. The series is classed as in vivo. The note with it: 320 g/ha, visual scoring after about 3 weeks. The procedure:
as §3

Series [18] deals with Alopecurus myosuroides. The series is described as follows: Pre-emergence herbicidal effect. The format is in vivo. The note with it: 320 g/ha, 3 weeks. The method in brief:
as §1

The test system of series [19] is Polygonum convolvulus. The series is described as follows: Pre-emergence herbicidal effect. The note with it: 320 g/ha, 3 weeks. The format is in vivo. The method in brief:
as §1

The test system of series [20] is Matricaria inodora. In words: Pre-emergence herbicidal effect. The note with it: 3 weeks. The format is in vivo. An outline of the steps: as §1
Series [21] concerns Setaria viridis. The series is described as follows: Pre-emergence herbicidal effect. The series is classed as in vivo. The note with it: 3 weeks. An outline of the steps: as §1
The subject of series [22] is Lolium multiflorum. The series is described as follows: Pre-emergence herbicidal effect. The series is classed as in vivo. The note with it: 3 weeks. The method in brief:
as §1

Series [23] concerns Echinochloa crus-galli. In words: Pre-emergence herbicidal effect. The note with it: 320 g/ha, 3 weeks. The series is classed as in vivo. An outline of the steps:
as §1

Each structure is given as a SMILES string.

For the compound `O=C1CC(c2ccccc2F)Cc2nc(N[C@@H]3CCCc4ccccc43)ncc21` (stereo partly drawn) [2.93], in [1] (1280 g/ha), the “ORYSA herbicidal activity in percent” value is 20%. For the same compound, the “TRZAS herbicidal activity in percent” value in series [2] (1280 g/ha) worked out at 0%. The “ZEAMX herbicidal activity in percent” value in series [3] (1280 g/ha) was found to be 0%. In series [4], the “logp (HCOOH)” value is listed as “oily; logp (HCOOH): 4.38; 1H-NMR (CDCl3, 400 MHZ, δ in ppm): 1.95 (m, 3H, 2H”. The “STEME herbicidal activity in percent” value in series [5] (1280 g/ha) came to 100%. The “PHBPU herbicidal activity in percent” value in series [6] was 90%. In addition, the “VERPE herbicidal activity in percent” value in series [7] (1280 g/ha) stood at 100%. Also, the “VIOTR herbicidal activity in percent” value in [8] (1280 g/ha) is given as 80%. The “AMARE herbicidal activity in percent” value in [9] (1280 g/ha) is 80%. Also, in [10], the “CYPES herbicidal activity in percent” value is given as 100%.

In the case of `Cc1ccc2c(c1)[C@H](Nc1ncc3c(n1)CCCC3=O)[C@@H](C)C2` [2.118], the “post-emergence efficacy ORYSA” value in series [11] (80 g/ha) and in series [11] (320 g/ha) was 0% each time. The “post-emergence efficacy TRZAS” value in series [12] is recorded as 0%. For the same compound, the “post-emergence efficacy ZEAMX” value worked out at 0% in series [13] (80 g/ha) and 10% in series [13] (320 g/ha). Also, the “post-emergence efficacy PHBPU” value in [14] is recorded as 100%. Moreover, in series [15], the “post-emergence efficacy SETVI” value is on record as 80%. Also, the “post-emergence efficacy LOLMU” value in [16] was found to be 80%. In [17], the “post-emergence efficacy ECHCG” value came to 100%. The “ORYSA herbicidal activity in percent” value in series [1] (80 g/ha) and in series [1] (320 g/ha) was 10% throughout. In addition, the “TRZAS herbicidal activity in percent” value in [2] (80 g/ha) is recorded as 0%. Further, the “ZEAMX herbicidal activity in percent” value in series [3] (80 g/ha) and in series [3] (320 g/ha) was 0% in each case. Further, in series [4], the “logp (HCOOH)” value is “oily; logp (HCOOH): 4.51; 1H-NMR (CDCl3, 400 MHZ, δ in ppm): 1.25 (d, 3H, 3H”. The “STEME herbicidal activity in percent” value in series [5] (80 g/ha) and in [5] (320 g/ha) was 100% throughout. The “ALOMY herbicidal activity in percent” value in series [18] is reported as 90%. In addition, the “VERPE herbicidal activity in percent” value in series [7] (80 g/ha) and in series [7] (320 g/ha) was 100% in each case. For the same compound, in [19], the “POLCO herbicidal activity in percent” value is listed as 100%. Also, the figures for the “MATIN herbicidal activity in percent” value in [20] (80 g/ha) and in [20] (320 g/ha) were 90% and 100%, respectively. The “VIOTR herbicidal activity in percent” value in series [8] (80 g/ha) and in series [8] (320 g/ha) was 100% in each case. In addition, the “AMARE herbicidal activity in percent” value in series [9] (80 g/ha) and in series [9] (320 g/ha) was 100% each time. Besides, the “SETVI herbicidal activity in percent” value in series [21] (80 g/ha) and in series [21] (320 g/ha) was 100% in each case. Moreover, the figures for the “LOLMU herbicidal activity in percent” value in series [22] (80 g/ha) and in series [22] (320 g/ha) were 80% and 100%, respectively. Also, the “ECHCG herbicidal activity in percent” value in [23] is 100%.
